One data set has as its system RT112. Briefly: Proliferation assay, bladder cancer cell line RT112. It counts as cell-based. The following applies: Homo sapiens, RT-112; 72 h culture, CyQuant proliferation assay. The procedure: (§1) Bladder cancer cell lines (T24, RT112, HT1376 and RT4 are human bladder cancer cell lines; NHEK are normal human keratinocytes) were obtained from the European Collection of Cell Cultures (Salisbury, UK). […] After a further 72 h of culture, cell proliferation was measured using a fluorescence-based proliferation assay kit. (CyQuant Cell Proliferation Assay Kit, Molecular Probes, Eugene, Oreg., USA). The IC50 was calculated from the regression curve of the titration data.

The subject of data set [1] is renin mRNA in As4.1hVDR cells. Briefly: Renin suppression assay (renin mRNA, Northern blot). The settings on record: 10^−10, 10^−9 and 10^−8 M, 24 hours.
The subject of the next data set is HL-60 cells. The experiment in a line: HL-60 (CD14) cell differentiation. Type of data set: cell-based. The settings on record: Homo sapiens, HL-60 cell differentiation, read-out: HL-60(CD14) ED50.
A further data set in a line: in vivo. The settings on record: female, C57BL/6, mouse, po.
A further data set deals with ECV. Briefly: Proliferation assay, bladder cancer cell line ECV. It counts as cell-based. The settings on record: Homo sapiens; 72 h culture, CyQuant proliferation assay.
A further data set deals with IFN-γ production. The experiment in a line: IFN-γ production in the mixed leukocyte response (MLR). It counts as cell-based. The settings on record: MLR of allogeneic PBMC, 5 days, ELISA. The procedure: Immature dendritic cells (DC) were prepared as described in Romani, N. et al., J. Immunol. Meth.
The subject of another data set is RT4. Briefly: Proliferation assay, bladder cancer cell line RT4. Type of data set: cell-based. The following applies: Homo sapiens, RT-4; 72 h culture, CyQuant proliferation assay. The procedure: as §1
The target in the next data set is T1, VDR (Homo sapiens, UniProt P11473).
T1 sequence (P11473 1-427): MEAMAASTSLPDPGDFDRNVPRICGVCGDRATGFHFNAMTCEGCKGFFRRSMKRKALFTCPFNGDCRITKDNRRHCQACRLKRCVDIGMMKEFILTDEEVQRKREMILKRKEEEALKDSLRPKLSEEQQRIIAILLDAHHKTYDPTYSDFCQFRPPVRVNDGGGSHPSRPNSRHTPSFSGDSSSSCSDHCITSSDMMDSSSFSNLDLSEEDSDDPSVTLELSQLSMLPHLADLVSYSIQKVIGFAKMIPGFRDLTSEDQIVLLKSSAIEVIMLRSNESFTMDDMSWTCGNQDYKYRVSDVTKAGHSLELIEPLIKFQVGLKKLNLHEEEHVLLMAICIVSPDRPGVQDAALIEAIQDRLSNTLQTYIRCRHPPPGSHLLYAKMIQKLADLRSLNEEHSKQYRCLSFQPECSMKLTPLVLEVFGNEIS
The experiment in a line: VDR binding. The following applies: 1,25(OH)2D3 100.0.

For the next data set, the system named is HT 1376. Briefly: Proliferation assay, bladder cancer cell line HT 1376. It counts as cell-based. The settings on record: Homo sapiens, 72 h culture, CyQuant proliferation assay. The protocol:
as §1

Another data set deals with NHEK. The experiment in a line: Proliferation assay, normal human keratinocytes NHEK. Type of data set: cell-based. The settings on record: 72 h culture, CyQuant proliferation assay. The protocol:
as §1

Structures are written as SMILES. Marks after values point to notes of the source that are not given here.

With `C=C1/C(=C\C=C2/CCC[C@]3(C)[C@@H]([C@H](CCCC(C)(C)O)CC[C@@H](O)C(C)(C)O)CC[C@@H]23)C[C@@H](O)C[C@@H]1O` [Compound 3, 1,25-Dihydroxy-21-(2R,3-dihydroxy-3-methyl-butyl)-20R-cholecalciferol], the IC50 (as a rule, the concentration that inhibits the measured activity by half) in the data set with RT112 was 25 µM; in the data set with ECV, 57.9 µM; with IFN-γ production (120 h, read-out: INF-γ IC50) it was 66 pM; in the data set on RT4 it was 71 µM; in the data set on HT 1376 it was 98 µM; in the data set on NHEK, 46.5 µM. For the same compound, the “renin suppression activity compared with 1,25(OH)2D3” value in [1] was “comparable to that of 1,25(OH)2D3”. Besides, the EC50 with HL-60 cells was 0.00217 µM. The MTD in “in vivo” turned out to be 0.03 mg/kg. Moreover, the “down regulation of INF-γ (class symbol)” value with IFN-γ production is “* (good down regulation of INF-γ (e.g., less than 100 IC50 pM))”. Further, the “VDR Binding” value on VDR is listed as 42.10*.
